From patent US10947188B2, “Small molecule ferroptosis inducers” (THE TRUSTEES OF COLUMBIA UNIVERSITY IN THE CITY OF NEW YORK, priority 2016, dated 2021)

What was measured:
HT-1080 cells [1] = assay: Analysis of lipid ROS generation (C11-BODIPY 581/591 flow cytometry); format: cell-based
Procedure: Cells were treated with test compounds, trypsinized, pelleted, and washed once with PBS. For lipophilic or aqueous ROS detection, cells were re-suspended in Hanks' Balanced Salt Solution (HBSS; […] Cells were then pelleted, re-suspended in 500 μL HBSS, strained through a 40-μm cell strainer (BD Falcon), and analyzed using a BD Accuri C6 flow cytometer (BD Biosciences). Both dyes were measured in the FL1 channel. Experiments were done in biological triplicates.

HT-1080 cells [2] = assay: Cell viability assay (Alamar Blue), lethal compounds with or without modulators; format: cell-based; conditions: for effect on FIN56 lethality: HT-1080 cells, modulator cotreatment or pretreatment
Procedure: 1,000 cells per 36 μl were seeded in each well in 384-well plates. Lethal compounds were dissolved, and a twofold, 12-point dilution series was prepared in DMSO. Compound solutions were further diluted with media at 1:25, and 4 μl per well of the diluted solutions was added to cell cultures immediately after cells were seeded. […] When other cell-death-modulating compounds (100 nM sodium selenite, 1 μM cerivastatin, 100 μg/mL mevalonic acid) were used in cotreatments, they were supplemented to cell culture for 24 h before lethal compounds were added to cell culture, after which cells were further incubated for 24 h at 37° C. under 5% CO2. On the day of the viability measurement, we added 10 μl per well of 50% Alamar Blue diluted in media (Life Technologies) and further incubated the cells at 37° C. for 6 h. Fluorescence intensity (excitation/emission: 530/590) was measured with a Victor 3 plate reader (PerkinElmer), and the normalized viability was calculated as VL=(IL−I0)/(IV−I0), where VL, I0, IV, and IL are the normalized viability and the raw fluorescence intensities from the wells containing media, cells treated with a vehicle (negative control), and cells with the lethal compound (L), respectively. When the effect of a chemical modulator (M) on L was calculated, we instead used the equation VL|M=(IM,L−I0)/(IM,V−I0), where VL|M, IM,L and IM,V are the normalized viability, and fluorescence intensity from cells treated with […], respectively. The viability was typically measured in biological triplicate unless otherwise specified. A representative dose-response curve, the mean and standard error of normalized viability from one replicate were plotted. […]

GPX4 = assay: Western blotting of GPX4 protein abundance; format: cell-based, human; conditions: 5 μM FIN56
Procedure: Seeded 300,000 cells (HT-1080 or BJeLR) per well in six-well plates. For cotreatment, ferroptosis inducers (10 μM erastin for 11 h, 0.5 μM (1S, 3R)-RSL3 for 2 h, or 5 μM FIN56) and 100 μM α-tocopherol were added to cell culture at the same time, and cells were then incubated for 10 h (FIG. 2E). When other death-modulating compounds (100 nM sodium selenite, 1 μM cerivastatin, 100 μg/mL mevalonic acid, 30 μM C75, or 2 μM cerulenin) were used in cotreatments, cells were pre-incubated with the modulators for 24 h before being treated with ferroptosis inducers for 6 h. Cell lysis, SDS-PAGE and protein transfer to PVDF membrane were performed as previously described (Dixon et al. 2012). We used the following antibodies: anti-human α-tubulin (Santa Cruz Biotechnology, sc-32293, 1:10,000 dilution), anti-human GPX4 (Abcam, ab41787, 1:2,000 dilution), anti-human GPX1 (R&D Systems, AF3798, 1:1,000 dilution), and anti-human SQS (Abcam, ab109723 for full-length, ab195046 for truncated, both at 1:1,000 dilution). Secondary antibodies were from LI-COR (1:3,000 dilution). The PVDF membranes labeled with primary and secondary antibodies were scanned using an Odyssey Imaging System (LI-COR). Experiments were performed in biological triplicates, and the mean±s.e. of intensity was plotted.

| SMILES | effect on lipid ROS generation after FIN56 treatment (HT-1080 cells [1]) | effect on staurosporine-induced cell death (HT-1080 cells [2]) | effect on FIN56-induced decrease of GPX4 protein abundance (GPX4) | effect on FIN56 lethality (HT-1080 cells [2]) |
| --- | --- | --- | --- | --- |
| Cc1c(C)c2c(c(C)c1O)CC[C@@](C)(CCC[C@H](C)CCC[C@H](C)CCCC(C)C)O2 [α-tocopherol] | inhibited lipid ROS generation after FIN56 treatment | suppressed staurosporine-induced cell death | not inhibited |  |
| COC1=C(OC)C(=O)C(CCCCCCCCCCO)=C(C)C1=O [idebenone] | inhibited lipid ROS generation after FIN56 treatment | enhanced it | did not block the decrease in GPX4 protein abundance | the only suppressor of FIN56-induced ferroptosis |
| CCCCCCCCCCCCCCOc1ccc(C(=O)O)o1 [TOFA] | suppressed lipid ROS generation after FIN56 treatment |  | inhibited the loss of GPX4 | potent suppressor of FIN56 |
